Biological target: T1, NleB1 (Escherichia coli, UniProt Q8XBX8)
T1 construct: GST-EHEC-NleB1 in pET42a (GST/His tagged), expressed in E. coli BL21 (DE3), nickel purified; some tag cleavage noted
Conditions: inhibitor; for % NleB1 inhibition (µM compound) / 10: 10 µM; for % NleB1 inhibition (µM compound) / 20: 20 µM; for % NleB1 inhibition (µM compound) / 40: 40 µM; for % NleB1 inhibition (µM compound) / 80: 80 µM; for % NleB1 inhibition (µM compound) / 160: 160 µM

For `COc1cc(C(C)=O)ccc1OCc1cn(CC(=O)c2ccc(O)cc2)nn1` [KUC104076N], the “% NleB1 inhibition (µM compound) / 10” value was 32.0%, the “% NleB1 inhibition (µM compound) / 20” value was 44.9% and the “% NleB1 inhibition (µM compound) / 40” value was 45.1%. For the same molecule, the “% NleB1 inhibition (µM compound) / 80” value was 61.1% and the “% NleB1 inhibition (µM compound) / 160” value was 75.5%.
In the case of `O=C(Cn1cc(COc2ccccc2C(F)(F)F)nn1)c1ccc(O)cc1` [KUC104085N], the “% NleB1 inhibition (µM compound) / 10” value was 36.1%, the “% NleB1 inhibition (µM compound) / 40” value was 51.8% and the “% NleB1 inhibition (µM compound) / 80” value was 63.6%. For the same molecule, the “% NleB1 inhibition (µM compound) / 160” value was 78.4%.
`O=C(Cn1cc(COc2cccc([N+](=O)[O-])c2)nn1)c1ccc(O)cc1` [KUC104086N] was tested, and the “% NleB1 inhibition (µM compound) / 10” value was 24.5%, the “% NleB1 inhibition (µM compound) / 20” value was 24.5% and the “% NleB1 inhibition (µM compound) / 40” value was 34.2%. The “% NleB1 inhibition (µM compound) / 80” value was 32.8% and the “% NleB1 inhibition (µM compound) / 160” value was 50.5%.
For `CC(=O)c1ccc(OCc2cn(CC(=O)c3ccc(O)cc3)nn2)c(F)c1` [KUC104088N], the “% NleB1 inhibition (µM compound) / 10” value was 45.4%, the “% NleB1 inhibition (µM compound) / 20” value was 47.7% and the “% NleB1 inhibition (µM compound) / 40” value was 59.8%. For the same molecule, the “% NleB1 inhibition (µM compound) / 80” value was 76.5% and the “% NleB1 inhibition (µM compound) / 160” value was 92.0%.
For `Cc1cccc(C)c1OCc1cn(CC(=O)c2ccc(O)cc2)nn1` [KUC104090N], the “% NleB1 inhibition (µM compound) / 10” value was 36.8%, the “% NleB1 inhibition (µM compound) / 20” value was 44.9% and the “% NleB1 inhibition (µM compound) / 40” value was 53.2%. The “% NleB1 inhibition (µM compound) / 80” value was 69.2% and the “% NleB1 inhibition (µM compound) / 160” value was 85.8%.
For `O=C(Cn1cc(COc2c(F)c(F)cc(F)c2F)nn1)c1ccc(O)cc1` [KUC104092N], the “% NleB1 inhibition (µM compound) / 10” value was 39.5%, the “% NleB1 inhibition (µM compound) / 20” value was 42.1% and the “% NleB1 inhibition (µM compound) / 40” value was 57.8%. For the same molecule, the “% NleB1 inhibition (µM compound) / 80” value was 67.2% and the “% NleB1 inhibition (µM compound) / 160” value was 80.6%.
`CCCC(=O)c1ccc(OCc2cn(CC(=O)c3ccc(O)cc3)nn2)cc1` [KUC104099N] was tested, and the “% NleB1 inhibition (µM compound) / 10” value was 32.9%, the “% NleB1 inhibition (µM compound) / 20” value was 42.2% and the “% NleB1 inhibition (µM compound) / 40” value was 45.2%. The “% NleB1 inhibition (µM compound) / 80” value was 62.5% and the “% NleB1 inhibition (µM compound) / 160” value was 77.5%.
With `CC(=O)Nc1ccc(OCc2cn(CC(=O)c3ccc(O)cc3)nn2)cc1` [KUC104101N] the “% NleB1 inhibition (µM compound) / 10” value was 48.1%, the “% NleB1 inhibition (µM compound) / 20” value was 59.3% and the “% NleB1 inhibition (µM compound) / 40” value was 74.6%. For the same molecule, the “% NleB1 inhibition (µM compound) / 80” value was 91.3% and the “% NleB1 inhibition (µM compound) / 160” value was 98.1%.
With `CCC(=O)c1ccc(OCc2cn(CC(=O)c3ccc(O)cc3)nn2)cc1` [KUC104108N] the “% NleB1 inhibition (µM compound) / 10” value was 21.0%, the “% NleB1 inhibition (µM compound) / 20” value was 35.3% and the “% NleB1 inhibition (µM compound) / 40” value was 49.4%. The “% NleB1 inhibition (µM compound) / 80” value was 67.7% and the “% NleB1 inhibition (µM compound) / 160” value was 88.0%.
`COc1ccc(OCc2cn(CC(=O)c3ccc(O)cc3)nn2)cc1` [KUC104109N] was tested, and the “% NleB1 inhibition (µM compound) / 10” value was 35.4%, the “% NleB1 inhibition (µM compound) / 20” value was 43.6% and the “% NleB1 inhibition (µM compound) / 40” value was 53.9%. The “% NleB1 inhibition (µM compound) / 80” value was 67.3% and the “% NleB1 inhibition (µM compound) / 160” value was 82.9%.
With `O=Cc1cccc(OCc2cn(CC(=O)c3ccc(O)cc3)nn2)c1` [KUC104114N] the “% NleB1 inhibition (µM compound) / 10” value was 31.8%, the “% NleB1 inhibition (µM compound) / 20” value was 42.3% and the “% NleB1 inhibition (µM compound) / 40” value was 57.2%. The “% NleB1 inhibition (µM compound) / 80” value was 76.5% and the “% NleB1 inhibition (µM compound) / 160” value was 92.0%.
In the case of `COc1ccc2cc([C@H](C)C(=O)OCc3cn(CC(=O)c4ccc(O)cc4)nn3)ccc2c1` [KUC104115N], the “% NleB1 inhibition (µM compound) / 10” value was 40.2%, the “% NleB1 inhibition (µM compound) / 20” value was 44.0% and the “% NleB1 inhibition (µM compound) / 40” value was 48.2%. The “% NleB1 inhibition (µM compound) / 80” value was 61.4% and the “% NleB1 inhibition (µM compound) / 160” value was 78.6%.
In the case of `CC1C(=O)N(Cc2cn(CCC3OCCCO3)nn2)CCS(=O)(=O)N1Cc1ccc(-c2cccc(N(C)C)c2)cc1` (stereo not drawn) [KUC104889N], the “% NleB1 inhibition (µM compound) / 10” value was 26.6%, the “% NleB1 inhibition (µM compound) / 20” value was 28.9% and the “% NleB1 inhibition (µM compound) / 40” value was 29.5%. For the same molecule, the “% NleB1 inhibition (µM compound) / 80” value was 35.9% and the “% NleB1 inhibition (µM compound) / 160” value was 44.5%.
In the case of `CCCCCC(=O)N1C[C@H](n2cc(COC(=O)c3ccccc3)nn2)[C@@H](O)C[C@@H]1c1ccc(Cl)cc1` [KUC105040N], the “% NleB1 inhibition (µM compound) / 10” value was 9.1%, the “% NleB1 inhibition (µM compound) / 20” value was 14.5% and the “% NleB1 inhibition (µM compound) / 40” value was 18.9%. The “% NleB1 inhibition (µM compound) / 80” value was 40.4% and the “% NleB1 inhibition (µM compound) / 160” value was 50.7%.
For `COCOCCn1cc(CN2CCS(=O)(=O)N(Cc3ccc(-c4ccc(OC)nc4)cc3)C(C(C)C)C2=O)nn1` (stereo not drawn) [KUC105133N], the “% NleB1 inhibition (µM compound) / 10” value was 30.4%, the “% NleB1 inhibition (µM compound) / 20” value was 40.4% and the “% NleB1 inhibition (µM compound) / 40” value was 45.5%. The “% NleB1 inhibition (µM compound) / 80” value was 62.2% and the “% NleB1 inhibition (µM compound) / 160” value was 75.8%.
For `COc1ccc(-c2ccc(CN3C(C(C)C)C(=O)N(Cc4cn(CCC5OCCO5)nn4)CCS3(=O)=O)cc2)cn1` (stereo not drawn) [KUC105137N], the “% NleB1 inhibition (µM compound) / 10” value was 13.7%, the “% NleB1 inhibition (µM compound) / 20” value was 25.7% and the “% NleB1 inhibition (µM compound) / 40” value was 41.5%. The “% NleB1 inhibition (µM compound) / 80” value was 64.5% and the “% NleB1 inhibition (µM compound) / 160” value was 79.7%.
`COCOCCn1cc(CN2CCS(=O)(=O)N(Cc3ccc(-c4ccc(F)nc4)cc3)C(CC(C)C)C2=O)nn1` (stereo not drawn) [KUC105149N] was tested, and the “% NleB1 inhibition (µM compound) / 10” value was 34.4%, the “% NleB1 inhibition (µM compound) / 20” value was 38.8% and the “% NleB1 inhibition (µM compound) / 40” value was 42.6%. The “% NleB1 inhibition (µM compound) / 80” value was 55.9% and the “% NleB1 inhibition (µM compound) / 160” value was 69.5%.
In the case of `CC(C)CC1C(=O)N(Cc2cn(CCC3OCCCO3)nn2)CCS(=O)(=O)N1Cc1ccc(-c2ccc(F)nc2)cc1` (stereo not drawn) [KUC105151N], the “% NleB1 inhibition (µM compound) / 10” value was 0.6%, the “% NleB1 inhibition (µM compound) / 20” value was 15.1% and the “% NleB1 inhibition (µM compound) / 40” value was 31.9%. For the same molecule, the “% NleB1 inhibition (µM compound) / 80” value was 50.8% and the “% NleB1 inhibition (µM compound) / 160” value was 53.0%.
For `CCCCN1CC(COCc2ccccc2)Oc2cccc(Oc3ccc(F)cc3OC)c2S1(=O)=O` (stereo not drawn) [KUC106008N], the “% NleB1 inhibition (µM compound) / 10” value was 21.4%, the “% NleB1 inhibition (µM compound) / 20” value was 22.4% and the “% NleB1 inhibition (µM compound) / 40” value was 20.7%. For the same molecule, the “% NleB1 inhibition (µM compound) / 80” value was 31.6% and the “% NleB1 inhibition (µM compound) / 160” value was 55.9%.
For `O=C(c1ccc([N+](=O)[O-])cc1)N1[C@H](COCc2ccccc2)C=CS1(=O)=O` [KUC107029N], the “% NleB1 inhibition (µM compound) / 10” value was 30.6%, the “% NleB1 inhibition (µM compound) / 20” value was 41.5% and the “% NleB1 inhibition (µM compound) / 40” value was 43.4%. For the same molecule, the “% NleB1 inhibition (µM compound) / 80” value was 48.6% and the “% NleB1 inhibition (µM compound) / 160” value was 43.4%.
For `CN(C)CCN1CCN(C2CN(Cc3cn(Cc4ccc(F)cc4)nn3)S(=O)(=O)C2)CC1` (stereo not drawn) [KUC108117N], the “% NleB1 inhibition (µM compound) / 10” value was 5.6%, the “% NleB1 inhibition (µM compound) / 20” value was 23.7% and the “% NleB1 inhibition (µM compound) / 40” value was 25.1%. The “% NleB1 inhibition (µM compound) / 80” value was 21.8% and the “% NleB1 inhibition (µM compound) / 160” value was 21.8%.
In the case of `CN1CCC(N2CCN(C3CN(Cc4cn(Cc5cccc(Cl)c5)nn4)S(=O)(=O)C3)CC2)CC1` (stereo not drawn) [KUC108133N], the “% NleB1 inhibition (µM compound) / 10” value was 4.1%, the “% NleB1 inhibition (µM compound) / 20” value was 18.2% and the “% NleB1 inhibition (µM compound) / 40” value was 22.3%. The “% NleB1 inhibition (µM compound) / 80” value was 18.0% and the “% NleB1 inhibition (µM compound) / 160” value was 18.2%.
`O=S1(=O)CC(N2CCN(Cc3ccccc3F)CC2)CN1Cc1cn(Cc2cccc(Cl)c2)nn1` (stereo not drawn) [KUC108236N] was tested, and the “% NleB1 inhibition (µM compound) / 10” value was 13.5%, the “% NleB1 inhibition (µM compound) / 20” value was 26.7% and the “% NleB1 inhibition (µM compound) / 40” value was 13.1%. The “% NleB1 inhibition (µM compound) / 80” value was 12.7% and the “% NleB1 inhibition (µM compound) / 160” value was 18.4%.
With `C[C@H](c1ccccc1)N1C[C@@H](COCc2ccccc2)Oc2cc(N3CC[C@@H](O)C3)ccc2S1(=O)=O` [KUC108511N] the “% NleB1 inhibition (µM compound) / 10” value was 33.8%, the “% NleB1 inhibition (µM compound) / 20” value was 33.0% and the “% NleB1 inhibition (µM compound) / 40” value was 29.9%. The “% NleB1 inhibition (µM compound) / 80” value was 49.8% and the “% NleB1 inhibition (µM compound) / 160” value was 63.7%.
In the case of `Cc1ccc2c(c1)C1CS(=O)(=O)N(C3CCCC3)C(=O)N1C2` (stereo not drawn) [KUC109525N], the “% NleB1 inhibition (µM compound) / 10” value was 26.3%, the “% NleB1 inhibition (µM compound) / 20” value was 31.5% and the “% NleB1 inhibition (µM compound) / 40” value was 20.9%. For the same molecule, the “% NleB1 inhibition (µM compound) / 80” value was 19.5% and the “% NleB1 inhibition (µM compound) / 160” value was 29.3%.
In the case of `COC(=O)[C@H](C(C)C)N1Cc2nnn(Cc3ccccc3)c2-c2ccccc2S1(=O)=O` [KUC110604N], the “% NleB1 inhibition (µM compound) / 10” value was 4.8%, the “% NleB1 inhibition (µM compound) / 20” value was 15.1% and the “% NleB1 inhibition (µM compound) / 40” value was 17.9%. For the same molecule, the “% NleB1 inhibition (µM compound) / 80” value was 21.1% and the “% NleB1 inhibition (µM compound) / 160” value was 17.9%.

— paper PMC6305410, “High-Throughput Screening for Bacterial Glycosyltransferase Inhibitors” (Frontiers in Cellular and Infection Microbiology, 2018)
